Data reported in article PMC7281072 (Cancers, 2020).

Legend:
CB17 SCID mice = conditions: both, mouse, in vivo, ip
[1] = system: OVCAR-5 human ovarian adenocarcinoma xenograft; set-up: species or system CB17 SCID mice; conditions: mouse, in vivo; for MST (mean survival time): test concentration or dose not given here; for TI% (Tumor Inhibition): test concentration or dose not given here
[2] = system: SKOV-3 human ovarian adenocarcinoma xenograft; set-up: species or system CB17 SCID mice; conditions: mouse, in vivo; for MST (mean survival time): test concentration or dose not given here; for TI% (Tumor Inhibition): test concentration or dose not given here
in vivo = conditions: both, CB17 SCID, mouse, ip

NC(Cc1ccc(N(CCCl)CCCl)cc1)C(=O)O [L-PAM, 2-amino-3-(4-(bis (2-chloroethyl)amino)phenyl) propanoic acid, reference compound]
LD10 (CB17 SCID mice): 14 mg/kg | Median Overall Survival (OS) [1]: 60 days | Progression Free Survival (PFS) [1]: 0 days | Response Rate (RR) [1]: 0% | antitumor activity (in words) [1]: no significant antitumor activity | Cures (mice alive for 120 days after tumor inoculation) ([1]; ip): 0/5 | MST (mean survival time) ([1]; ip): 61.0 ± 4.3 days | T/C% (mean survival time of treated versus saline controls) ([1]; ip): 120.8% | TI% (Tumor Inhibition) ([1]; ip): 24.5% | Median Overall Survival (OS) [2]: 49 days | Progression Free Survival (PFS) [2]: 0 days | Response Rate (RR) [2]: 0% | antitumor activity (in words) [2]: no significant antitumor activity | Cures (mice alive for 120 days after tumor inoculation) ([2]; ip): 0/5 | MST (mean survival time) ([2]; ip): 48.5 ± 2.3 days | T/C% (mean survival time of treated versus saline controls) ([2]; ip): 119.7% | TI% (Tumor Inhibition) ([2]; ip): 10.5% | LD50 (in vivo): 20.8 mg/kg
